Test results published in patent US12146183B2, “Compound and a method for identifying a protein using said compound” (CITY UNIVERSITY OF HONG KONG, priority 2020, dated 2024).

Assays:
Format in all cases: biochemical
Sirt2 = biological target: T1, Sirt2 (Homo sapiens, UniProt Q8IXJ6); assay: Fluorimeter delipoylation assay of probe KTlip with Sirt2
T1 construct: made in house
T1 sequence (Q8IXJ6 1-389): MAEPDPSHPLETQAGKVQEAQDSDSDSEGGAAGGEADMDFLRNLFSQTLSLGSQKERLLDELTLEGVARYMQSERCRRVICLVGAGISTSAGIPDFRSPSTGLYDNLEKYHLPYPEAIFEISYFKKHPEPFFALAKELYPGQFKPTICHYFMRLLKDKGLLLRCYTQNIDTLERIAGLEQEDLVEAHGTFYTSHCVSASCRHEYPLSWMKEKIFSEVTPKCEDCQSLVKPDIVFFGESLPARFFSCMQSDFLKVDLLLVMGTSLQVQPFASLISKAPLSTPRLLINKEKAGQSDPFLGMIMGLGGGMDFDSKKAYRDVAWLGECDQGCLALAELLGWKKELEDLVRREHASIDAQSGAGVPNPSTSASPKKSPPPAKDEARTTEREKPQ
Protocol: The capacity of HDACs to recognize and remove the lipoyl group of KTlip was examined by a fluorimeter assay. KTlip was incubated with various HDACs at 37° C. in HEPES buffer (pH 8.0). The fluorescence of the enzymatic reactions was then measured accordingly. […] Further HPLC and MS analysis confirmed that the molecular weight of the newly generated peak corresponded to the expected tandem de-lipoylated/exchanged product. […] After enzymatic reaction with Sirt2, a shift of peak absorption from 380 nm to 480 nm was clearly observed. Through detailed kinetic study, the first-order rate constant of the reaction was determined to be 0.013 min-1. […]
The probe KTlip was incubated with sirtuin and NAD+ at 37° C. in 20 mM HEPES buffer (pH 8.0) containing 150 mM NaCl, 1 mM MgCl2, and 2.7 mM KCl. […] When the enzymatic reaction was complete, the reaction was applied for absorption and fluorescence measurement. The parameter set for absorbance measurement was as follows: UV-visible light, collection region: 300-550 nm. The parameter set for fluorescence measurements was as follows: λex=480 nm, slit width: 5 nm, collection region: 510-600 nm.
The rate constant was calculated by fitting the fluorescence data to the following equation: Fluorescence intensity=1−exp(−kt) Enzymatic Reaction with Lipoylated Peptides.

Sirt1 = biological target: T2, Sirt1 (Homo sapiens, UniProt Q96EB6); assay: Fluorimeter delipoylation assay of probe KTlip with Sirt1; settings: Sirt1, 37° C., HEPES buffer pH 8.0
T2 construct: made in house
T2 sequence (Q96EB6 1-747): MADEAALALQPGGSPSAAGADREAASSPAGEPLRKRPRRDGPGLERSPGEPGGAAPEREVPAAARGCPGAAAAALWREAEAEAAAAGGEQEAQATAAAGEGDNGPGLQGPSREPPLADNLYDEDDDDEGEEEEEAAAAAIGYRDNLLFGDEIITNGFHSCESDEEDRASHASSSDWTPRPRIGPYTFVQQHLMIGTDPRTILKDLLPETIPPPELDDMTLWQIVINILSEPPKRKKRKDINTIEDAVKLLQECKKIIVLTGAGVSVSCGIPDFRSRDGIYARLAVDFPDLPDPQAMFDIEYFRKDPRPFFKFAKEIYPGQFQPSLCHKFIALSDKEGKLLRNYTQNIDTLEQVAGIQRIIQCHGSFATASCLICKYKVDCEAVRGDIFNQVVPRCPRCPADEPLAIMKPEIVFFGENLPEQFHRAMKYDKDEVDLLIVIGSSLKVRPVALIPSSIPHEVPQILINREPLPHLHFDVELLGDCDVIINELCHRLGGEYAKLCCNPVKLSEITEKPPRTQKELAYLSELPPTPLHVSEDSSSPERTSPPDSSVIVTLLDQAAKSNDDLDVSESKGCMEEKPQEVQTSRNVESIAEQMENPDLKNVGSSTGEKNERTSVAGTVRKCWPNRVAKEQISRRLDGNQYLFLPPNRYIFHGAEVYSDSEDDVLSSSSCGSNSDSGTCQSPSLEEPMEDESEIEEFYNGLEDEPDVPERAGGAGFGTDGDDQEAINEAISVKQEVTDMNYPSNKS
Protocol: (§1) The capacity of HDACs to recognize and remove the lipoyl group of KTlip was examined by a fluorimeter assay. KTlip was incubated with various HDACs at 37° C. in HEPES buffer (pH 8.0). The fluorescence of the enzymatic reactions was then measured accordingly. […] Further HPLC and MS analysis confirmed that the molecular weight of the newly generated peak corresponded to the expected tandem de-lipoylated/exchanged product. […] After enzymatic reaction with Sirt2, a shift of peak absorption from 380 nm to 480 nm was clearly observed. Through detailed kinetic study, the first-order rate constant of the reaction was determined to be 0.013 min-1. The Km value of KTlip obtained from the fluorescent method matched well with that from the traditional HPLC method, underscoring that probe KTlip can serve as a useful tool for detecting enzymatic delipoylation activity.
(§2) The probe KTlip was incubated with sirtuin and NAD+ at 37° C. in 20 mM HEPES buffer (pH 8.0) containing 150 mM NaCl, 1 mM MgCl2, and 2.7 mM KCl. The enzymatic reaction volume was 50 μL. When the enzymatic reaction was complete, the reaction was applied for absorption and fluorescence measurement. The parameter set for absorbance measurement was as follows: UV-visible light, collection region: 300-550 nm. The parameter set for fluorescence measurements was as follows: λex=480 nm, slit width: 5 nm, collection region: 510-600 nm.

Sirt6 = biological target: T3, Sirt6 (Homo sapiens, UniProt Q8N6T7); assay: Fluorimeter delipoylation assay of probe KTlip with Sirt6; settings: Sirt6, 37° C., HEPES buffer pH 8.0
T3 construct: made in house
T3 sequence (Q8N6T7 whole entry, species assumed): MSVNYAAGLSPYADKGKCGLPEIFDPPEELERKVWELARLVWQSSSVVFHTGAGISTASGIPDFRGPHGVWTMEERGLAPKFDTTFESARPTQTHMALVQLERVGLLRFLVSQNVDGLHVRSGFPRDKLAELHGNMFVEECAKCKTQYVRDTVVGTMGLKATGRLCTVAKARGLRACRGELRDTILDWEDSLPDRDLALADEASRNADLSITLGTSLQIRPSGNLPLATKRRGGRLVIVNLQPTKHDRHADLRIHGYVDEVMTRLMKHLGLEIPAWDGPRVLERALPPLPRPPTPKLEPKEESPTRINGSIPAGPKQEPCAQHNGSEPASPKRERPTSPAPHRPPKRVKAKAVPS
Protocol: as §1, §2

Sirt3 = biological target: T4, Sirt3 (Homo sapiens, UniProt Q9NTG7); assay: Fluorimeter delipoylation assay of probe KTlip with Sirt3; settings: Sirt3, 37° C., HEPES buffer pH 8.0
T4 construct: made in house
T4 sequence (Q9NTG7 1-399): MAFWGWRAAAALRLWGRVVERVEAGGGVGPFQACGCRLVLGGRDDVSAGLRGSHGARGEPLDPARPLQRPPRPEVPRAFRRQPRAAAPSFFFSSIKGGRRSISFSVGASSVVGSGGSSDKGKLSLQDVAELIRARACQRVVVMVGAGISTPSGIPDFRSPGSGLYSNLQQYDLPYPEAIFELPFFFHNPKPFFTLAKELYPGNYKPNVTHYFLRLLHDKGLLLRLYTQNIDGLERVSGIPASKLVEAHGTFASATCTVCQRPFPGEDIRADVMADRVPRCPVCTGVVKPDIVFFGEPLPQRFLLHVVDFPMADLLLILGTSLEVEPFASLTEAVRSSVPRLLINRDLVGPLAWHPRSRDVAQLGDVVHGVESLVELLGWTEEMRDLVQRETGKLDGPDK
Protocol: as §1, §2

Sirt5 = biological target: T5, Sirt5 (Homo sapiens, UniProt Q9NXA8); assay: Fluorimeter delipoylation assay of probe KTlip with Sirt5; settings: Sirt5, 37° C., HEPES buffer pH 8.0
T5 construct: made in house
T5 sequence (Q9NXA8 37-310): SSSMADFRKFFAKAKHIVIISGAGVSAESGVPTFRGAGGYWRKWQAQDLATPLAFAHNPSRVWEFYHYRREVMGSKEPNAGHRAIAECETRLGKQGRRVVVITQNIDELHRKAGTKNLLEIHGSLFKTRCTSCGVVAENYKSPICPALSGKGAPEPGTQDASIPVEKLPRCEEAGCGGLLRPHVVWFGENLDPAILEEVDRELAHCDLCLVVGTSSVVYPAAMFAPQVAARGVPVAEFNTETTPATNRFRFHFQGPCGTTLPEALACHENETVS
Protocol: as §1, §2

HDAC8 = biological target: T6, HDAC8 (Homo sapiens, UniProt Q9BY41); assay: Fluorimeter and HPLC/MS delipoylation assay of probe KTlip with HDAC8
T6 sequence (Q9BY41 1-377): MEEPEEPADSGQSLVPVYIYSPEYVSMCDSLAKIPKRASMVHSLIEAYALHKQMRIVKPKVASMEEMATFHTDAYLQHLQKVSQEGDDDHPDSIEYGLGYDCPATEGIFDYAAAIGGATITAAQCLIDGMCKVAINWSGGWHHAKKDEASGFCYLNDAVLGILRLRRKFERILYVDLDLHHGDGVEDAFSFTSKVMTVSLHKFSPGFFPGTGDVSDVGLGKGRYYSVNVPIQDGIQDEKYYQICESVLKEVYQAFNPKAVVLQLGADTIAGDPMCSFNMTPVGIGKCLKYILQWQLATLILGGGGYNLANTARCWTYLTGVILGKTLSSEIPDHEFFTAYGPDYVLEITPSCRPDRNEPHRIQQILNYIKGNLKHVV
Protocol: as §1, §2

Fluorescence increase (Sirt2; Sirt2, 37° C., HEPES buffer pH 8.0): 60 fold | First-order rate constant of the reaction (Sirt2; Sirt2, fluorescence fit): 0.013 min⁻¹ | Fluorescence signal (Sirt1): much lower fluorescence signal | De-lipoylated product (HPLC and MS analysis) (HDAC8; HDAC8 enzymatic reaction conditions): No de-lipoylated product was observed
SMILES: CC(C)(C)OC(=O)N[C@@H](CCCCNC(=O)CCCCC1CCSS1)C(=O)NCCOCCOc1ccc([N+](=O)[O-])c2nonc12 (some centres unmarked) [KTlip]
Fluorescence increase (Sirt6): did not show a noticeable fluorescence increase | Fluorescence increase (Sirt3): did not show a noticeable fluorescence increase | Fluorescence increase (Sirt5): did not show a noticeable fluorescence increase | Fluorescence increase (HDAC8; HDAC8, 37° C., HEPES buffer pH 8.0): did not show a noticeable fluorescence increase
